This is an account of results in paper PMC9145754, “Novel Soloxolone Amides as Potent Anti-Glioblastoma Candidates: Design, Synthesis, In Silico Analysis and Biological Activities In Vitro and In Vivo” (Pharmaceuticals, 2022).

The test system of assay [1] is U87 cells. Kind of assay: MTT cytotoxicity assay, U87. Type of assay: cell-based. Conditions: Homo sapiens, U-87 MG, 24 h, read-out: IC50, Glioblastoma, U87. On the procedure:
To evaluate the antitumor activity of the synthesized soloxolone amides in brain tumor cells, the cytotoxicity of compounds 4–12, predicted as BBB-permeable (Figure 3), was further analyzed in human glioblastoma U87 and U118 cells, as well as human neuroblastoma KELLY and murine neuroblastoma Neuro2a cells.
The cells in the exponential growth phase were seeded in quadruplicate in 96-well plates at a density of 1 × 10^4 cells/well for HeLa, U87, U118, KELLY and Neuro2a cells; 1.5 × 10^4 cells/well for HuTu-80 cells; 2 × 10^4 cells/well for B16 cells; and 7 × 10^3 cells/well for hFF3 fibroblasts. Cells were incubated under standard conditions overnight followed by their treatment with the investigated compounds (1–20 µM) for 24 h. Then, 10 µL of MTT solution was added to the cells to a final concentration of 0.5 mg/mL and plates were placed under standard conditions for 3 h followed by an aspiration of MTT-containing medium and a dissolution of formazan crystals with 100 µL of DMSO. The absorbance of each well was read at test and reference wavelengths of 570 and 620 nm, respectively, on a Multiscan RC plate reader (Thermo LabSystems, Helsinki, Finland).
(In general: Formazan colour is commonly taken as a measure of viable cells.)

Assay [2] relates to U87 cells. Kind of assay: Mitochondrial mass, MitoTracker Green. Conditions: 24 h. It counts as cell-based, human. On the procedure: Next, to evaluate whether the observed compound 12-driven disturbance of mitochondrial homeostasis in glioblastoma cells involved an alteration in mitochondrial abundance, U87 cells were treated with 12 at 2 and 4 µM for 24 h and stained with MitoTracker Green, a fluorescent probe accumulated in mitochondria ΔψM-independently. […] The obtained results agree well with published data: Yang et al. and Gibellini et al. found a similar increase in mitochondrial mass in RAW264.7 macrophages and colon carcinoma RKO cells treated with CDDO-Im and CDDO, respectively. We suppose that the observed triterpenoid-induced mitogenesis in glioblastoma cells is mediated by compensatory mechanisms in response to compound 12-triggered mitochondrial stress and that it plays a cytoprotective role—high mitochondrial mass is known to be highly correlated with chemotherapy-driven redundant production of reactive oxygen species (ROS) in tumor cells and to underlie their chemoresistance.
U87 cells were seeded at a density of 2.8 × 10^5 cells/well in 6-well plates and incubated overnight, followed by their treatment with 12 at 2 and 4 µM for 24 h. […] Thereafter, the cells were washed twice with PBS and analyzed by flow cytometry. In total, 10,000 events were recorded for each sample.

Assay [3] deals with U87 glioblastoma. Kind of assay: Subcutaneous U87 glioblastoma xenograft model. It counts as in vivo, Balb/C nude mice. On the procedure: Given the high antitumor potential of 12 with respect to glioblastoma cells observed in vitro, we further questioned whether the investigated triterpenoid suppresses the growth of glioblastoma in a murine model. To understand this, 12 was intraperitoneally injected as a solution in 10% Tween-80 at a dosage of 20 mg/kg into nude mice bearing subcutaneously implanted human U87 glioblastomas (the experimental setup is presented in Figure 8A). […] Analysis of tumor weights also confirmed the high antitumor activity of 12, which decreased this parameter by 2.1- and 3.4-fold compared to the untreated and vehicle-treated groups, respectively (Figure 8D).
A xenograft model of tumor progression was induced by subcutaneous (s.c.) injection of U87 glioblastoma cells (2 × 10^7 cells/mL) suspended in 0.1 mL of saline buffer with 0.05 mL of Matrigel® Matrix (Corning, NY, USA) into the left flank of Balb/C nude mice. On day 5 after tumor transplantation, the mice were divided into three groups (n = 6 per group): (1) mice without treatment (control); (2) mice that received intraperitoneal (i.p.) injections of 10% Tween-80 (vehicle); and (3) mice that received i.p. injections of 12 in 10% Tween-80 at a dose of 20 mg/kg. The treatment was carried out thrice per week. The total number of injections was seven. During the experiment, the tumor volumes were determined three times a week using caliper measurements and were calculated as V= (D × d^2)/2, where D is the longest diameter of the tumor node and d is the shortest diameter of the tumor node perpendicular to D. The mice were sacrificed on day 21 after tumor transplantation and the tumors and brains were collected for subsequent histological and pharmacological analysis.
For the histological study, the tumor specimens were fixed in 10% neutral-buffered formalin (BioVitrum, St. Petersburg, Russia), dehydrated in ascending ethanols and xylols and embedded in HISTOMIX paraffin (BioVitrum, St. Petersburg, Russia). The paraffin sections (5 μm) were sliced on a Microm HM 355S microtome (Thermo Fisher Scientific, Waltham, MA, USA) and stained with hematoxylin and eosin. Extracellular matrix deposition was determined using Masson’s trichrome staining.
For the immunohistochemical study, the tumor sections (3–4 μm) were deparaffinized and rehydrated. Antigen retrieval was carried out after exposure in a microwave oven at 700 W. The samples were incubated with anti-Ki-67 (ab16667, Abcam, Boston, MA, USA), anti-α-SMA (ab5694, Abcam, USA) or anti-CD31 (ab182981, Abcam, USA) primary antibodies according to the manufacturer’s protocol. Then, the sections were incubated with secondary horseradish peroxidase (HPR)-conjugated antibodies, exposed to the 3,3′-diaminobenzidine (DAB) substrate (Rabbit Specific HRP/DAB (ABC) Detection IHC Kit, ab 64261, Abcam, USA) and stained with Mayer’s hematoxylin.
Morphometric analysis of tumor sections included evaluation of the numerical density (Nv) of mitoses and Ki-67-positive cells in a square unit of tumor tissue—3.2 × 10^6 μm^2 in this case. At least ten random fields from the tumor specimens of six mice in each group (60 testing fields in total) were studied.

Where [4] appears, read: 20 mg/kg i.p., seven injections.
[5] abbreviates: 20 mg/kg i.p., seven injections, day 21.

A word on the IC50: it is the concentration that inhibits the measured activity by half.

Turning to `CC1(C)C(=O)C(C#N)=C[C@]2(C)C3=CC(=O)[C@@H]4[C@@H]5C[C@@](C)(C(=O)NCCc6c[nH]c7ccccc67)CC[C@]5(C)CC[C@@]4(C)[C@]3(C)CC[C@@H]12` [compound 12], the IC50 in assay [1] was found to be 1900 ± 100 nM. Further, the “induction of mitochondrial biogenesis” value in assay [2] (U87, 12 at 2 µM) was “statistically insignificant”. Besides, the “increase of mitochondrial mass compared to the control” value in assay [2] (U87, 12 at 4 µM) came to 1.6 fold. Moreover, in assay [3] (setting [4]), the “decrease in tumor weight compared to the untreated group” value came out at 2.1 fold and the “decrease in tumor weight compared to the vehicle-treated group” value was determined as 3.4 fold. Further, in assay [3] (setting [5]), the “decrease in tumor volume compared to the control” value came to 3 fold and the “decrease in tumor volume compared to the vehicle-treated group” value is 4.4 fold. Besides, in assay [3] (20 mg/kg i.p., tumor tissue), the “decrease in numerical density of Ki-67-positive cells compared to the untreated control group” value is 3.5 fold, the “decrease in numerical density of Ki-67-positive cells compared with vehicle-treated animals” value was 2.4 fold, the “decrease in numerical density of mitotic cells (Nv) compared to the untreated control group” value came to 3.4 fold and the “decrease in numerical density of mitotic cells (Nv) compared with vehicle-treated animals” value is 4 fold. For the same molecule, in assay [3] (Masson's trichrome, versus untreated and vehicle-treated mice), the “collagen fiber content in tumor tissue” value was “decreased the collagen fiber content”. Besides, the “expression of CD31 and α-SMA in tumor tissue” value in assay [3] (immunohistochemistry, versus control and vehicle-treated mice) is “increased the expression of both CD31 and α-SMA”.
